Assay: xn = mol fraction of the nth substance listed

CC=CC(=O)O + CC(C)=O
viscosity [mPa·s], 101 kPa
Details	x1 = 0.0488	x1 = 0.1	x1 = 0.1504	x1 = 0.1994	x1 = 0.2534	x1 = 0.2705
298.15 K	0.3461	0.3887	0.4349	0.4858	0.5435	0.5686
303.15 K	0.3299	0.3718	0.4141	0.461	0.5149	0.5368
308.15 K	0.3157	0.3531	0.3935	0.4352	0.4883	0.5066
313.15 K	0.3017	0.3379	0.3756	0.4196	0.463	0.4869
323.15 K	0.2771	0.3079	0.342	0.3849	0.4184	0.438

ClC(Cl)C(Cl)Cl + CC(C)=O
298.15 K, 101 kPa
Details	viscosity [mPa·s]
x1 = 0.2	0.509
x1 = 0.4	0.811
x1 = 0.6	1.138
x1 = 0.8	1.499

OC(C(F)(F)F)C(F)(F)F + CC(C)=O
298.15 K, 101 kPa
Details	viscosity [mPa·s]
x2 = 0.2	1.35
x2 = 0.4	0.964
x2 = 0.5	0.838
x2 = 0.6	0.658
x2 = 0.8	0.45
x2 = 0.9	0.369
x2 = 0.95	0.336

COCCOCCOC + CC(C)CC(C)(C)C
viscosity [mPa·s], 101.33 kPa
Details	x1 = 0.0931	x1 = 0.1978	x1 = 0.2916	x1 = 0.4016	x1 = 0.4538	x1 = 0.5881	x1 = 0.687	x1 = 0.7926	x1 = 0.8997
298.15 K	0.49	0.511	0.538	0.58	0.602	0.668	0.726	0.808	0.887
303.15 K	0.46	0.481	0.507	0.545	0.564	0.624	0.677	0.741	0.821
308.15 K	0.435	0.455	0.478	0.512	0.529	0.584	0.632	0.69	0.762
313.15 K	0.413	0.43	0.451	0.482	0.5	0.548	0.592	0.647	0.712
318.15 K	0.389	0.405	0.425	0.453	0.468	0.512	0.553	0.601	–

CCCCCCn1cc[n+](C)c1.F[B-](F)(F)F + CC(C)CO
101 kPa
Details	viscosity [mPa·s]
293.15 K, x1 = 0.5606	49.75
303.15 K, x1 = 0.8327	84.55
308.15 K, x1 = 0.1004	4.975
